Measurements from PMC11643554, “Synthesis, Cytotoxicity and Antiproliferative Effect of New Pyrrole Hydrazones” (Molecules, 2024).
Values joined by “and” are separate entries in the source; they are usually repeats but may differ in a detail not shown here. Equal values may be shown once. Read-outs that look alike come from different tables or passages of the source.

Assays:
melanoma cells = tested on: melanoma cells; parameters: method as in PMID 25524552, PMID 29364157; details: standard cytostatics used in chemotherapy, compared with 1C in SH-4 melanoma cells; cited from earlier work
[1] = tested on: human keratinocytes HaCaT; assay: Antiproliferative activity, MTT dye reduction assay, HaCaT; assay type: cell-based; details: Homo sapiens, non-tumor keratinocytes HaCaT, 72 h, n = 6, read-out: Mean IC50 ± SD, HaCaT
Protocol: (§1) The antiproliferative activity of the studied substances was determined by MTT dye reduction assay. The assay is based on the metabolism of MTT by reductases in the mitochondria to formazan, the concentration of which can be determined photometrically. The measured absorbance is an indicator of cell viability and metabolic activity. Cells were seeded in 96-well cell culture plates (1 × 10^3 cells/well). Followed by incubation at 37 °C, 5% CO2 for 24 h. Followed by incubation for 72 h of the cells with the studied substances in twice increasing concentrations. After washing with PBS, 100 µL/well of MTT solution (0.5 mg/mL) was added. After 3 h of incubation, the 96-well plates were washed with PBS, and 100 µL/well of lysing solution (DMSO/Ethanol = 1/1) was added. Optical density was measured at a wavelength of 540 nm. The antiproliferative activity expressed in % of the negative control was calculated according to the following formula:Antiproliferative activity (%) = (1 − (OD540 (sample)/OD540 (negative control))) × 100
(§2) The IC50 values (a concentration that inhibited 50% cell proliferation) were calculated using non-linear regression analysis (GraphPad Prizm8 Software). The statistical analysis included the application of one-way ANOVA followed by Bonferroni’s post hoc test. p < 0.05 was accepted as the lowest level of statistical significance. All results are presented as mean ± SD.

SH-4 cells [2] = assay: Annexin V-FITC/PI flow cytometry assay (apoptosis); assay type: cell-based, human; details: SH-4, 48 h, 1C 40 µM, 1D 8 µM; for Early apoptosis (Annexin V+/PI−, Q3) / Late apoptosis (Annexin V+/PI+, Q2) / Live (viable cells, Annexin V−/PI−, Q4) / Necrosis (Annexin V−/PI+, Q1): 1 6 µM, 1A 260 µM, 1B 260 µM, cisplatin 20 µM
Protocol: Apoptosis was discriminated with the annexin V-FITC/PI test according to the manufacturer’s protocol (SIGMA-ALDRICH APOAF). […] After completion of each drug incubation, cell media that may contain cells in suspension was centrifuged at 350× g for 5 min. Subsequently, the cell monolayers were washed once with PBS, and cells were detached with trypsin and then collected together with a centrifuged pellet. The cells were washed twice with cold PBS and then resuspended in a Binding Buffer (0.1 M Hepes/NaOH (pH 7.4), 1.4 M NaCl, 25 mM CaCl2) at a concentration of 1 × 10^5 cells/mL. The cells were incubated with 5 µL of FITC Annexin V and 10 µL PI for 20 min at RT (25 °C) in the dark. The analysis was performed with BD FACS DIVA software version 7.0 (BD Biosciences, Franklin Lakes, NJ, USA). Data were analyzed as follows: lower left quadrant, viable cells (Annexin V−/PI−); lower right quadrant, early apoptotic cells (Annexin V+/PI−); upper right quadrant, late apoptotic cells (annexin V+/PI+); upper left quadrant, necrotic cells (annexin V−/PI+). Three independent experiments were performed, with two replicates per experiment.

SH-4 cells [3] = assay: Cell cycle analysis, PI stain, flow cytometry; assay type: cell-based, human; details: SH-4, 48 h; for effect on cell cycle distribution (in words): at IC50 doses; for G2 phase, percentage of cells / S phase, percentage of cells / G0/G1 phase, percentage of cells: 1 6 µM, 1A 260 µM, 1B 260 µM, 1C 40 µM, 1D 8 µM, cisplatin 20 µM; for G2 phase, percentage of cells: control 12.1; for S phase, percentage of cells: control 21.6; for G0/G1 phase, percentage of cells: control 63.6
Protocol: After incubation, cells were washed twice with ice-cold PBS and fixed with ice-cold 70% ethanol at −20 °C overnight. The cells were treated with 20 µg/mL RNase A at 37 °C for 60 min, then washed with PBS and finally stained with 20 µg/mL PI in the dark for 30 min. The cellular DNA content for the cell cycle distribution analysis was performed with the system software (BD FACS DIVA software (BD Biosciences, Franklin Lakes, NJ, USA)), plotting at least 10,000 events per sample. Three independent experiments were performed, with two replicates per experiment.

[4] = tested on: mouse embryonic fibroblasts BALB 3T3 clone A31; assay: BALB 3T3 Neutral Red Uptake safety test (cytotoxicity/phototoxicity); assay type: cell-based; details: PIF = CC50 −Irr/CC50 +Irr; PIF < 2 not phototoxic, 2 < PIF < 5 probable phototoxicity, PIF > 5 phototoxic
Protocol: (§3) The Neutral Red Uptake in vitro assay is a colorimetric method for assessing cell viability. This method is based on the ability of living cells to incorporate Neutral Red dye into lysosomes. Mouse embryonic fibroblasts were seeded at 1 × 10^4 cells/100 μL culture medium/well in 96-well cell culture microplates. The cells were incubated for 24 h to allow cell adhesion. The cells were then treated with a solution of the test substances in double-increasing concentrations (from 15 to 4000 μM). The phototoxicity test was performed in parallel on a second 96-well plate, which was irradiated with a solar simulator (LED lamp—Helios-iO (SERIC Ltd., Tokyo, Japan) for 10 min (irradiation dose 0.86 J). After 24 h of incubation, a culture medium containing Neutral Red was added. After 3 h of incubation, the wells were washed with PBS, and a Desorb solution (50% Ethanol, 1% Acetic acid, 49% dH2O) was added. The optical density (OD) was measured by a microplate reader at λ = 540 nm. The percentage of cytotoxicity was calculated according to the following formula:Cytotoxicity (%) = (1 − (OD540 (sample)/OD540 (negative control))) × 100 Phototoxicity is expressed by Photoirritation factor (PIF), PIF = CC50 − Irr/CC50 +Irr* * Irradiation

[5] = as above; assay type: cell-based, mouse; details: mouse, BALB 3T3 clone A31 embryonic fibroblasts, BALB 3T3, NRU, 24 h incubation, n = 6
Protocol: as §3

human melanoma SH-4 = assay: Antiproliferative activity, MTT dye reduction assay, SH-4; assay type: cell-based; details: for IC50: Homo sapiens, melanoma SH-4, MTT, 72 h, n = 6, read-out: Mean IC50 ± SD, SH-4; for SI (Selective index): SI = IC50 (non-tumor cell line HaCaT)/IC50 (tumor cell line SH-4)
Protocol: as §1, §2

[6] = irradiated with solar simulator 10 min (0.86 J), read-out: Mean CC50 ± SD, +Irr
[7] = without irradiation, read-out: Mean CC50 ± SD, −Irr

| Structure (SMILES) | IC50 (melanoma cells) | IC50 [1] | Early apoptosis (Annexin V+/PI−, Q3) (SH-4 cells [2]) | Late apoptosis (Annexin V+/PI+, Q2) (SH-4 cells [2]) | Live (viable cells, Annexin V−/PI−, Q4) (SH-4 cells [2]) | Necrosis (Annexin V−/PI+, Q1) (SH-4 cells [2]) | population fraction of total apoptotic cells (SH-4 cells [2]) | effect on cell cycle distribution (in words) (SH-4 cells [3]) | G2 phase, percentage of cells (SH-4 cells [3]) | S phase, percentage of cells (SH-4 cells [3]) | G0/G1 phase, percentage of cells (SH-4 cells [3]) | melting point | PIF (Photo Irritation Factor) [4] | CC50 at 24 h [5, 6] | CC50 at 24 h [5, 7] | IC50 (human melanoma SH-4) | SI (Selective index) (human melanoma SH-4) |
| --- | --- | --- | --- | --- | --- | --- | --- | --- | --- | --- | --- | --- | --- | --- | --- | --- | --- |
| N.N.O=C([O-])C1(C(=O)[O-])CCC1.[Pt+2] [Carboplatin] | 18.2 µM |  |  |  |  |  |  |  |  |  |  |  |  |  |  |  |  |
| CCOC(=O)c1cc(-c2ccc(Cl)cc2)n(C(Cc2ccccc2)C(=O)N/N=C/c2c(C)[nH]c(C(=O)OCC)c2C)c1C (centres unmarked) [Compound 1C, Ethyl(E)-4-((2-(2-(5-(4-chlorophenyl)-3-(ethoxycarbonyl)-2-methyl-1H-pyrrol-1-yl)-3-phenylpropanoyl)hydrazineylidene)methyl)-3,5-dimethyl-1H-pyrrole-2-carboxylate] |  | 171 ± 4.09 µM | 39% | 7.13% | 53.4% | 0.43% | around 46% | induction of S-phase arrest | 24.5% | 38.5% and 38% | 35% | > 230 °C | 0.95 | 1750 ± 31.7 µM | 1670 ± 41.5 µM | 44.6 ± 3.51 µM | 3.83 |
| CCOC(=O)c1cc(-c2ccc(Cl)cc2)n(C(Cc2ccccc2)C(=O)N/N=C/c2c(C)[nH]c(C)c2C(=O)OCC)c1C (centres unmarked) [Compound 1D, Ethyl(E)-5-(4-chlorophenyl)-1-(1-(2-((4-(ethoxycarbonyl)-2,5-dimethyl-1H-pyrrol-3-yl)methylene)hydrazineyl)-1-oxo-3-phenylpropan-2-yl)-2-methyl-1H-pyrrole-3-carboxylate] |  | 11 ± 0.42 µM | 32.5% | 6.51% | 60.2% | 0.78% | 39% | induction of S-phase arrest | 23.2% | 46.4% and 46% | 28.3% | > 230 °C | 1.13 | 3370 ± 130 µM | 3800 ± 185 µM | 8.72 ± 0.6 µM | 1.26 |
| CN(C)C(=O)c1cc2cnc(Nc3ccc(N4CCNCC4)cn3)nc2n1C1CCCC1 [Ribociclib] | 35 µM |  |  |  |  |  |  |  |  |  |  |  |  |  |  |  |  |
| Cn1nnc2c(C(N)=O)ncn2c1=O [Temozolomide] | 50 µM |  |  |  |  |  |  |  |  |  |  |  |  |  |  |  |  |
